± gives the expanded uncertainty stated by the source.
Conditions: 298.15 K; 101.33 kPa; Liquid; Vibrating tube method

Row | mass density | SMILES
1 | 936.88 ± 0.26 kg/m3 | CC(=O)N(C)C [N,N-dimethylethanamide]
2 | 759.27 ± 0.26 kg/m3 | CCCCCCCCCCCCCC [tetradecane]
3 | 726.43 ± 0.26 kg/m3 | CCCCCCCCCC [decane]
4 | 764.86 ± 0.26 kg/m3 | CC1CCCCC1 [methylcyclohexane]
5 | 741.54 ± 0.26 kg/m3 | CCCCCCCCCCCC [dodecane]
6 | 687.77 ± 0.26 kg/m3 | CC(C)CC(C)(C)C [2,2,4-trimethylpentane]
7 | 831.87 ± 0.26 kg/m3 | C1CCCCCCC1 [cyclooctane]
